# Results: patent US11028075B2, “Therapeutic compounds and methods of use thereof” (GENENTECH, INC., priority 2018, dated 2021)
# pIC50: −log10 of the molar value. Structures can show the parent of a compound that is named as a salt.
# Legend:
# [1] = molecular target: T1, hNav1.7 (Homo sapiens (Human), UniProt Q15858); assay: Electrophysiological assay (EP), voltage clamp on Syncropatch 384PE, CHO cells stably expressing Nav1.7; format: cell-based; details: holding potential −50 mV, 7.5 min compound incubation, read-out: EP_SP hNav1.7 EVO IC50
# From the text: Example 93C. Electrophysiological Assay (EP) (In Vitro Assay)
# Patch voltage clamp electrophysiology allows for the direct measurement and quantification of block of voltage-gated sodium channels (NaV's), and allows the determination of the time- and voltage-dependence of block which has been interpreted as differential binding to the resting, open, and inactivated states of the sodium channel (Hille, B., Journal of General Physiology (1977), 69: 497-515).
# The following voltage clamp electrophysiology studies are performed on representative compounds using cells heterologously expressing Nav1.7 or Nav1.5 channels. cDNAsfor Nav1.7 (NM_002977) and Nav1.5 (AC137587) are stably expressed in Chinese Hamstr Ovary (CHO) cells and CHL (Chinese Hamster Lung) cells respectively. Sodium currents are measured in the whole-cell configuration using Syncropatch 384PE (Nanlon Technologies, Germany). 1NPC®-384 chips with custom medium resistance and single hole mode are used. Internal solution consists of (in mM): […], 10 […], 20 EGTA, and 10 Hepes (pH adjusted to 7.2); and external solution contains (in mM): 60 NMDG, 80 NaCl, 4 KCl, 1 MgCl2, 2 CaCl2, 2 D-Glucose monohydrate, 10 Hepes (pH adjusted to 7.4 with NaOH).
# After system flushing, testing compounds are dissolved in external solution containing 0.1% Pluronic F-127. The chip is moved into the measuring head and the instrument primes the chip with external and internal solutions. 10 μl cells are added to the chip from a cell hotel, and a negative pressure of −50 mBar is applied to form a seal. Following treatment with seal enhancer solution and wash-off with external solution, negative pressure of −250 mbar is applied for 1 second to achieve the whole-cell configuration, followed by three washing steps in external solution. 20 μl of compounds is added to 40 μl in each well (1:3 dilution of compounds), and after mixing, 20 μl is removed so the volume is retained at 40 μl. After approximately 13 minutes recordings, 20 μl/well of 2 uM TTX, or 333 uM Tetracaine (for Nav1.5) is added to achieve full block.
# For voltage protocol, an holding potential of −50 mV is applied during the whole experiment. A depolarizing step is applied to −10 mV for 10 ms, followed by a hyperpolarization step to −150 mV for 20 ms to allow channel recovery from inactivation. A second depolarizing step is applied from −150 mV to −10 mV for 10 ms, where currents are measured to derive blocking effects of compounds. Inhibition is determined based on 7.5 min of compound incubation.
# Target sequence in this assay (Q15858 other isoform, or with tags, fused parts or gaps): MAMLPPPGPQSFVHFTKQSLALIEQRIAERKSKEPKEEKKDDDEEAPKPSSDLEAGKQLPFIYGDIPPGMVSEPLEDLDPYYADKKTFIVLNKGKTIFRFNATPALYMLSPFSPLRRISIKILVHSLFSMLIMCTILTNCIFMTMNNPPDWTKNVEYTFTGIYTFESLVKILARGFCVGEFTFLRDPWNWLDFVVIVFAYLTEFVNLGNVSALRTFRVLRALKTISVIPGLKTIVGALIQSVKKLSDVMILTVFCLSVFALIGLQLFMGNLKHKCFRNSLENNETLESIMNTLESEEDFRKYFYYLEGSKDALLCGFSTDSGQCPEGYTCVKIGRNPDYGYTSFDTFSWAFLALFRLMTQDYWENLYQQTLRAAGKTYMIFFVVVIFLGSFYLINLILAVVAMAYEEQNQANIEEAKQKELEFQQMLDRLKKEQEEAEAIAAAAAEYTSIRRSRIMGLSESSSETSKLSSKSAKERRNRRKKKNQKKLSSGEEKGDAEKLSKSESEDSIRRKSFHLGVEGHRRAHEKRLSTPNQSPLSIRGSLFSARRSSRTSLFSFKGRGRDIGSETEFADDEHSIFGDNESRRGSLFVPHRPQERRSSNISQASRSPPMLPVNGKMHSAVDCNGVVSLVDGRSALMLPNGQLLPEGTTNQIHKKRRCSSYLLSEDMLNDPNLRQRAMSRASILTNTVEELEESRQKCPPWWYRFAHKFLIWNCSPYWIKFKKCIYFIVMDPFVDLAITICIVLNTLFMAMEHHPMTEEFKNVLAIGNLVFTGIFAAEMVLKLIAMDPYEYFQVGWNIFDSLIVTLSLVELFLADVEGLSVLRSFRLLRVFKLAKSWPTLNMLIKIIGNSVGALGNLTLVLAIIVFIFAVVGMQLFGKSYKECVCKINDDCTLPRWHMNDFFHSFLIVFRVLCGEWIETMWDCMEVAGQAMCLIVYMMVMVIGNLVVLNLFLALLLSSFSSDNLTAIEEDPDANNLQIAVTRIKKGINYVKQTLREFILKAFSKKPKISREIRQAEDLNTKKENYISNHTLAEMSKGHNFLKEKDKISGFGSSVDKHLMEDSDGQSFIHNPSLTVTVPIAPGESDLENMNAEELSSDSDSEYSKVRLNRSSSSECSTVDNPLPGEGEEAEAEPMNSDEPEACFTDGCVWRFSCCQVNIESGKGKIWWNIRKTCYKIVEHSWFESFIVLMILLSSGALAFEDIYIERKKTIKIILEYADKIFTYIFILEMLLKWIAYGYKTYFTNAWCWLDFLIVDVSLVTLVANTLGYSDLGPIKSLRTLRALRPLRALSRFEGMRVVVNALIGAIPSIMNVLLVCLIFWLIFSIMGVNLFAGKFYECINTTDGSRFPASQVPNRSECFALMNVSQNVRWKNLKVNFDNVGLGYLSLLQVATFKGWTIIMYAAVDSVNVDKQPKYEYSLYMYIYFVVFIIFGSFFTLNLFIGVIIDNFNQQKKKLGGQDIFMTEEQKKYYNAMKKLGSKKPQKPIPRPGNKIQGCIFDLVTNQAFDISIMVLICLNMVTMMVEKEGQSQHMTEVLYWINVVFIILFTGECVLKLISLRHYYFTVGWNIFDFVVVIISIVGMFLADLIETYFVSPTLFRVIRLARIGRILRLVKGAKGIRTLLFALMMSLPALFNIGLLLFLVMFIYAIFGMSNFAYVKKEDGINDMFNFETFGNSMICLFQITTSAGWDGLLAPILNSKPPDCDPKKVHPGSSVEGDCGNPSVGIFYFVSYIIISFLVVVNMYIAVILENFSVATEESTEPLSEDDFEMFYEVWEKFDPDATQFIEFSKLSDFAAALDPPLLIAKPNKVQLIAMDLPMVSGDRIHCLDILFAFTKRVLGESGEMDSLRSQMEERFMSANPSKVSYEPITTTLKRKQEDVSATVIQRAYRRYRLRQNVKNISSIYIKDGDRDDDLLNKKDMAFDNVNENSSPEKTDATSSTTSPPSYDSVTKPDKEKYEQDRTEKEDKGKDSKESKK
# [2] = molecular target: T1, hNav1.7; assay: Tritiated compound binding to membranes from cells heterologously expressing hNav1.7 and the β1 subunit (Nav1.7 LBA); details: competitive binding vs [3H]compound, membranes with hNav1.7 and β1 subunit; read-out: Nav1.7 LBA EVO IC50
# Protocol: Example 93A. Tritiated Compound Binding to Membranes Isolated from Cells that Heterologously Express hNav1.7 and the β1 Subunit
# Preparation of membranes containing recombinantly expressed sodium channels: Frozen recombinant cell pellets are thawed on ice and diluted to 4 times the cell pellet weight with ice cold 50 mM Tris HCl, pH 7.4 buffer. The cell suspensions are homogenized on ice using a motorized glass dounce homogeniser. Homogenates are further diluted 8.4 times with ice cold 50 mM Tris HCl, pH 7.4 buffer and then centrifuged at 200×g at 4° C. for 15 minutes. The supernatants are collected and centrifuged at 10000×g at 4° C. for 50 min. The pellets are then re-suspended in 100 mM NaCl, 20 mM Tris HCl, pH 7.4 buffer containing 1% v/v protease inhibitors (Calbiochem) and re-homogenized on ice. The homogenized membranes are then processed through a syringe equipped with a 26 gauge needle. Protein concentrations arer determined by Bradford Assay and the membranes are stored at −80° C.
# Saturation experiments. A competitive NaV1.7 inhibitor having a methyl group is tritiated. Three tritiums are incorporated in place of methyl hydrogens to generate [^3H]compound. Binding of this radioligand is performed in 5 mL borosilicate glass test tubes at room temperature. Binding is initiated by adding membranes to increasing concentrations of [^3H]compound in 100 mM NaCl, 20 mM Tris HCl, pH 7.4 buffer containing 0.01% w/v bovine serum albumin (BSA) for 18 h. Non-specific binding is determined in the presence of 1 μM unlabeled compound. After 18 h, the reactants are filtered through GF/C glass fiber filters presoaked in 0.5% w/v polyethylene imine. Filters are washed with 15 mL ice cold 100 mM NaCl, 20 mM Tris HCl, pH7.4 buffer containing 0.25% BSA to separate bound from free ligand. [^3H]compound bound to filters is quantified by liquid scintillation counting.
# Binding reactions are performed in 96-well polypropylene plates at room temperature for 18 h. In 360 μL, membranes are incubated with […] [^3H]compound and increasing concentrations of Test Compound. Non-specific binding is defined in the presence of 1 μM unlabeled compound. Reactions are transferred and filtered through 96-well glass fiber/C filter plates presoaked with 0.5% polyethylene imine. The filtered reactions are washed 5 times with 200 μL ice cold buffer containing 0.25% BSA. Bound radioactivity is determined by liquid scintillation counting.
# Data Analysis: For saturation experiments, non-specific binding is subtracted from total binding to provide specific binding and these values are recalculated in terms of pmol ligand bound per mg protein. Saturation curves are constructed and dissociation constants are calculated using the single site ligand binding model: Beq=(Bmax*X)/(X+Kd), where Beq is the amount of ligand bound at equilibrium, Bmax is the maximum receptor density, Kd is the dissociation constant for the ligand, and X is the free ligand concentration. For competition studies percent inhibition is determined and IC50 values are calculated using a 4 parameter logistic model (% inhibition=(A+((B−A)/(1+((x/C)^D)))) using XLfit, where A and B are the maximal and minimum inhibition respectively, C is the IC50 concentration and D is the (Hill) slope.
# Example 93B. Tritiated Compound Binding to Membranes Isolated from Cells that Heterologous Express hNav1.7 and the β1 Subunit
# Following the procedure described in Example 93A, and making modifications as required to: centrifuge supernatants at 100000×g instead of 10000×g; re-suspend pellets in a buffer containing 0.01% BSA in addition to 100 mM NaCl, 20 mM Tris HCl, pH 7.4 buffer, and 1% v/v proteasome inhibitors; and storing membranes at −80° C. in single use aliquots instead of pooled. […]
# Target sequence in this assay (Q15858 whole entry, looked up): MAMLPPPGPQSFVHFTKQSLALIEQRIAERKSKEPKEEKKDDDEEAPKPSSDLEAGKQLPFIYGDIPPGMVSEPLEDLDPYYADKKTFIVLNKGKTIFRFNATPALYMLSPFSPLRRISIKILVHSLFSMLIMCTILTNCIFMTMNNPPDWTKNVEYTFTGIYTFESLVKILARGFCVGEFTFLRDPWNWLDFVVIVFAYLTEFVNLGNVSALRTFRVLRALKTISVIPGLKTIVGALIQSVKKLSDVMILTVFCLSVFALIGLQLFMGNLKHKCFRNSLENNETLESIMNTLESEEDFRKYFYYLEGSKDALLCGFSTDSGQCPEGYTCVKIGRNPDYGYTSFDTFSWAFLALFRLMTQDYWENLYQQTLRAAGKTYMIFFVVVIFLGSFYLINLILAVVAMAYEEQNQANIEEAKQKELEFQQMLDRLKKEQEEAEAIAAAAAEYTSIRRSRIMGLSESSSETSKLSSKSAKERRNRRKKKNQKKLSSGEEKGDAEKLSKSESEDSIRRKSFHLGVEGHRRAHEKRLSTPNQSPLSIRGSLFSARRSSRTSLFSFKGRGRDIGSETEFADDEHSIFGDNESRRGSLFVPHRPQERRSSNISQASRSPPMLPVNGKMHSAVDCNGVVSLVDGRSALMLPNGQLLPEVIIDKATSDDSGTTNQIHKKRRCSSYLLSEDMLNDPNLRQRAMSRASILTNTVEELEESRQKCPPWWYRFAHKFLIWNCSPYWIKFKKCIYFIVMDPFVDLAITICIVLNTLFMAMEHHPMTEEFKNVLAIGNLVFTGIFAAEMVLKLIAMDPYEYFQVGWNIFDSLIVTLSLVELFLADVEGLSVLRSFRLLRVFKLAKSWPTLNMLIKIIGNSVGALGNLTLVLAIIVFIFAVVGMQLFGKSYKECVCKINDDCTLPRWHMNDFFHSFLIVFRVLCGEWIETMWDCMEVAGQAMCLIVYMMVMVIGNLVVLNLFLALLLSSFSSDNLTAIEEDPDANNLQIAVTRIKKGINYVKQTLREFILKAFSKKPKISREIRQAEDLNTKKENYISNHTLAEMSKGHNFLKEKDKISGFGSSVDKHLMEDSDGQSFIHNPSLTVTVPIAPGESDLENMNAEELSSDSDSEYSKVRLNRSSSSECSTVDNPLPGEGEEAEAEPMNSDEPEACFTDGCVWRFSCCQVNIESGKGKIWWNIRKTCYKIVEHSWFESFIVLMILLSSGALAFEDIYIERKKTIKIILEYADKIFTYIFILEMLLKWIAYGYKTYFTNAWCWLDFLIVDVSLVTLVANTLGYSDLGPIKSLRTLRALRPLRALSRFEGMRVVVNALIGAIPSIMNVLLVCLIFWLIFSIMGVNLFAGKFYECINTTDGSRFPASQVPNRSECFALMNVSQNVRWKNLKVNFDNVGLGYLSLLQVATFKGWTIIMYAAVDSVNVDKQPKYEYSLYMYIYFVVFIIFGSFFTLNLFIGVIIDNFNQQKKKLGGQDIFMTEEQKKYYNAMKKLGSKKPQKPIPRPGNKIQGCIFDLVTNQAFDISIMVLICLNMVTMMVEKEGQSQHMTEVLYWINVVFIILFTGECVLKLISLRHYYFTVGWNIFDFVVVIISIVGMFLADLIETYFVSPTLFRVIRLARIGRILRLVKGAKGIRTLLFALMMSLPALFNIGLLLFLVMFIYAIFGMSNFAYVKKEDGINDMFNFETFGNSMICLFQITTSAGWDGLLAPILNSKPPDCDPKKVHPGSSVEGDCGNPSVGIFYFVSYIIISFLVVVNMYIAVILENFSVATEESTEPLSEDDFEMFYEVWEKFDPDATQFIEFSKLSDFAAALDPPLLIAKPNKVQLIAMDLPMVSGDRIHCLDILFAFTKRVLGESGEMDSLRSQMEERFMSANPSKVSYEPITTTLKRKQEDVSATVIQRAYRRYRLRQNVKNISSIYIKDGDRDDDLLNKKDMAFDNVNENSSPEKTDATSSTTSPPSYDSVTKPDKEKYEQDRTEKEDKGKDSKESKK
# Target sequence in this assay (Q07699 whole entry partner, looked up): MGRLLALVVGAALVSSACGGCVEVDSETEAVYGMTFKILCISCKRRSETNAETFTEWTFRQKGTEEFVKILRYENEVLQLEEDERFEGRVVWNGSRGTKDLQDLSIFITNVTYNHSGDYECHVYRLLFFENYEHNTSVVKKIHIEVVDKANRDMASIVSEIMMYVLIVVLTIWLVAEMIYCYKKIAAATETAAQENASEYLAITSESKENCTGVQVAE
SMILES,pIC50 [1],pIC50 [2]
"O=CO.[2H]C([2H])([2H])N([C@H]1C[C@@H](c2cccc(C(F)(F)F)c2)CC[C@@H]1Nc1cc(F)c(S(=O)(=O)Nc2ccncn2)cc1Cl)C([2H])([2H])[2H] [Example 9, 4-[[(1S,2S,4S)-2-[bis(trideuteriomethyl)amino]-4-[3-(trifluoromethyl)phenyl]-cyclohexyl]amino]-5-chloro-2-fluoro-N-pyrimidin-4-yl-benzenesulfonamide formate]",9.16,9.17
"CN(C)[C@H]1C[C@@H](c2cccc(C(F)(F)F)c2)CC[C@@H]1n1ccc2cc(S(=O)(=O)Nc3ccncn3)c(F)cc21 [Example 10, 1-((1S,2S,4S)-2-(Dimethylamino)-4-(3-(trifluoromethyl)phenyl)cyclohexyl)-6-fluoro-N-(pyrimidin-4-yl)-1H-indole-5-sulfonamide formate]",8.56,7.59
"Cc1cccc([C@H]2CC[C@H](Nc3cc(F)c(S(=O)(=O)Nc4ccncn4)cc3Cl)[C@@H](N(C)C)C2)c1 [Example 11, 5-Chloro-4-(((1S,2S,4S)-2-(dimethylamino)-4-(m-tolyl)cyclohexyl)amino)-2-fluoro-N-(pyrimidin-4-yl)benzenesulfonamide formate]",8.79,8.12
"CN(C)[C@H]1C[C@@H](c2cc(C(F)(F)F)cc(C(F)(F)F)c2)CC[C@@H]1Nc1cc(F)c(S(=O)(=O)Nc2ccncn2)cc1Cl [Example 12, 4-(((1S,2S,4S)-4-(3,5-bis(trifluoromethyl)phenyl)-2-(dimethylamino)cyclohexyl)amino)-5-chloro-2-fluoro-N-(pyrimidin-4-yl)benzenesulfonamide]",9.27,9.33
"CN(C)[C@H]1C[C@@H](c2cc(C(F)(F)F)cc(C(F)(F)F)c2)CC[C@@H]1Nc1cc(F)c(S(=O)(=O)Nc2ccncn2)cc1F [Example 13, 4-(((1S,2S,4S)-4-(3,5-bis(trifluoromethyl)phenyl)-2-(dimethylamino)cyclohexyl)amino)-2,5-difluoro-N-(pyrimidin-4-yl)benzenesulfonamide]",9.19,8.87
"CN(C)[C@H]1C[C@@H](c2cccc(OC(F)F)c2)CC[C@@H]1Nc1cc(F)c(S(=O)(=O)Nc2ccncn2)cc1Cl [Example 14, 5-Chloro-4-[[(1S,2S,4S)-4-[3-(difluoromethoxy)phenyl]-2-(dimethylamino)-cyclohexyl]amino]-2-fluoro-N-pyrimidin-4-yl-benzenesulfonamide]",8.79,8.33
"CN(C)[C@H]1C[C@@H](c2cc(F)cc(C(F)(F)F)c2)CC[C@@H]1Nc1cc(F)c(S(=O)(=O)Nc2ccncn2)cc1Cl [Example 15, 5-Chloro-4-[[(1S,2S,4S)-2-(dimethylamino)-4-[3-fluoro-5-(trifluoromethyl)phenyl]-cyclohexyl]amino]-2-fluoro-N-pyrimidin-4-yl-benzenesulfonamide formic acid]",9.21,9.05
"CN(C)[C@H]1C[C@@H](c2cccc(C(F)(F)F)c2F)CC[C@@H]1Nc1cc(F)c(S(=O)(=O)Nc2ccncn2)cc1Cl [Example 16, 5-chloro-4-(((1S,2S,4S)-2-(dimethylamino)-4-(2-fluoro-3-(trifluoromethyl)phenyl)-cyclohexyl)-amino)-2-fluoro-N-(pyrimidin-4-yl)benzenesulfonamide]",9.03,8.92
"CN(C)[C@H]1C[C@@H](c2cc(C(F)(F)F)ccc2F)CC[C@@H]1Nc1cc(F)c(S(=O)(=O)Nc2ccncn2)cc1Cl [Example 17, 5-chloro-4-(((1S,2S,4S)-2-(dimethylamino)-4-(2-fluoro-5-(trifluoromethyl)phenyl)cyclohexyl)-amino)-2-fluoro-N-(pyrimidin-4-yl)benzenesulfonamide]",8.81,8.99
"CN(C)[C@H]1C[C@@H](c2cccc(C3(C(F)(F)F)CC3)c2)CC[C@@H]1Nc1cc(F)c(S(=O)(=O)Nc2ccncn2)cc1Cl [Example 18, 5-chloro-4-(((1S,2S,4S)-2-(dimethylamino)-4-(3-(1-(trifluoromethyl)cyclopropyl)phenyl)-cyclohexyl)amino)-2-fluoro-N-(pyrimidin-4-yl)benzenesulfonamide]",9.58,9.17
"CN(C)[C@H]1C[C@@H](c2cccc(OC(F)(F)F)c2)CC[C@@H]1Nc1cc(F)c(S(=O)(=O)Nc2ccncn2)cc1F [Example 19, 4-(((1S,2S,4S)-2-(dimethylamino)-4-(3-(trifluoromethoxy)phenyl)cyclohexyl)amino)-2,5-difluoro-N-(pyrimidin-4-yl)benzenesulfonamide]",9.17,8.87
"CN(C)[C@H]1C[C@@H](c2cccc(-n3cccn3)c2)CC[C@@H]1Nc1cc(F)c(S(=O)(=O)Nc2ccncn2)cc1Cl [Example 20, 4-(((1S,2S,4S)-4-(3-(1H-pyrazol-1-yl)phenyl)-2-(dimethylamino)cyclohexyl)amino)-5-chloro-2-fluoro-N-(pyrimidin-4-yl)benzenesulfonamide formate]",8.13,8.03
"CN(C)[C@H]1C[C@@H](c2cccc(-c3ccnn3C)c2)CC[C@@H]1Nc1cc(F)c(S(=O)(=O)Nc2ccncn2)cc1Cl [Example 21, 5-Chloro-4-(((1S,2S,4S)-2-(dimethylamino)-4-(3-(1-methyl-1H-pyrazol-5-yl)phenyl)-cyclohexyl)amino)-2-fluoro-N-(pyrimidin-4-yl)benzenesulfonamide]",8.10,7.89
CN(C)[C@H]1C[C@@H](c2cccc(-c3cnn(C)c3)c2)CC[C@@H]1Nc1cc(F)c(S(=O)(=O)Nc2ccncn2)cc1Cl [Example 22],7.71,7.67
